Reference: US20110172193A1, “PRO-DRUGS OF (E)-7-(3-(2-AMINO-1-FLUOROETHYLIDENE)PIPERIDIN-1-YL)-1-CYCLOPROPYL-6-FLUORO-8-METHOXY-4-OXO-1,4-DIHYDROQUINOLINE-3-CARBOXYLIC ACID” (priority 2010, published 2011)
Values after ≈ are worked out from the molar mass of the structure shown. Like-named read-outs stand apart in the source and are kept apart here.

Assays:
[1] = Aqueous solubility, modified procedure (saturated solutions, RP-HPLC); format: physicochemical; conditions: thermodynamic from solid, 100 mM phosphate buffer
Protocol: In these cases, the samples were targeted at a pH of 4 and 7 and were measured exclusively using 100 mM phosphate buffers. For both pH's, measured samples were initially prepared at ˜3 mg/ml and ˜10 mg/ml concentrations and for samples that dissolved rapidly, additional compound was added to the solution until saturated solutions were obtained.

[2] = In vitro bioconversion of pro-drug to parent drug in mouse blood, plasma, liver and kidney extract; format: in vitro ADME; conditions: for Peak Area of pro-drug: 37° C. heating block
Protocol: Compound concentrations were normalized to parent drug content by multiplying by a ratio of the relative molecular weights. Time 0 (minute) samples were prepared by immediately diluting with an equal volume of acetonitrile, vortexing, and transferring the samples to ice. […] Representative compounds of the present invention and the parent compound were analyzed by reversed-phase HPLC using an Agilent 1100 system. […] The solvent flow rate was 1 mL/min, and the column temperature was 40° C. Compound and parent peak identification was by diode array detection, monitored at 300 nm Conversion of the compounds (prodrugs) to parent drug was estimated by peak areas (A300 nm, mAU) of the respective agents. Mouse whole blood and plasma were collected from Swiss Webster mice, and stored at 4° C. until use (within 48 hours). […] For these experiments, fresh whole mouse livers or kidneys were homogenized for approximately 30 seconds (Omni-Tip™ disposable homogenizer tip) in 1 mL sterile saline and immediately stored on ice. Crude extracts (non-centrifuged) were incubated with the test compound or parent (20 μg/mL) and processed as described above.

[3] = In vitro bioconversion of pro-drug to parent drug in human blood and plasma; format: in vitro ADME; conditions: for Peak Area of pro-drug: 37° C.; for Conversion to the parent compound (summary in words): human whole blood and plasma
Protocol: Compounds #1, #4, #6, #15, and #16, as well as the parent drug [(E)-7-(3-(2-amino-1-fluoroethylidene)piperidin-1-yl)-1-cyclopropyl-6-fluoro-8-methoxy-4-oxo-1,4-dihydroquinoline-3-carboxylic acid] (the compound of formula (M)) were dissolved to 1 mg/mL, and diluted to 20 ng/mL in fresh, chilled (4° C.) human or mouse whole blood or plasma, or kidney and liver extract (prepared from the respective fresh mouse organs as described below). Compound concentrations were normalized to parent drug content by multiplying by a ratio of the relative molecular weights. Time 0 (minute) samples were prepared by immediately diluting with an equal volume of acetonitrile, vortexing, and transferring the samples to ice. For additional time points, samples were placed in an incubator (Tables 4 and 5), or in a heating block (Tables 6-12) at 37° C. for the indicated time, then immediately vortexed with an equal volume of acetonitrile and placed on ice. Samples were centrifuged and further diluted with an equal volume of water to a final concentration of 25% acetonitrile prior to analysis by HPLC; diluted samples were retained in the cooled (4° C.) HPLC sample injection chamber pending injection.
Representative compounds of the present invention and the parent compound were analyzed by reversed-phase HPLC using an Agilent 1100 system. Samples were injected onto a Zorbax SB-C18 column (3.5 μM, 4.6×150 mm) with a guard cartridge, and developed on a gradient of 15% aqueous acetonitrile in 0.1% trifluoroacetic acid to 85% aqueous acetonitrile in 0.1% trifluoroacetic acid over 10 minutes. The solvent flow rate was 1 mL/min, and the column temperature was 40° C. Compound and parent peak identification was by diode array detection, monitored at 300 nm Conversion of the compounds (prodrugs) to parent drug was estimated by peak areas (A300 nm, mAU) of the respective agents.
For studies with Compounds #1, #4 and #6 (with results as listed in Tables 8, 9 and 10), fresh human whole blood and plasma samples were purchased from BioChemed Services, shipped in Styrofoam coolers maintained with frozen cold packs, and used within 48 hours of receipt. For studies with Compounds #15 and #16 (with results as listed in Tables 11 and 12), blood was drawn from volunteers and whole blood samples and isolated plasma prepared and immediately placed on ice. Whole blood and plasma samples were maintained at 4° C. and used within approximately 30 hours.

[4] = test system: Staphylococcus aureus (OC8525), a methicillin-resistant strain (MRSA); assay: In vivo efficacy in a mouse systemic infection model
Protocol: Female Swiss Webster mice weighing between 20-25 g were infected intraperitoneally with approximately 5×10^5 colony forming units (CFU) Staphylococcus aureus (OC8525), a methicillin-resistant strain (MRSA), in 7% mucin. One hour later, the animals were given the test compound intravenously or orally in a dose volume of 0.2 mL. Each animal test group consisted of eight animals. The test compounds were prepared immediately before dosing in 5% dextrose in water (D5W) and diluted further in D5W for i.v. and p.o. administration. The mice were observed over a three day period and ED50 values were calculated from the resulting % survival curves (see Table 13, below). The measured ED50 values were normalized to the content of (E)-7-(3-(2-amino-1-fluoroethylidene)piperidin-1-yl)-1-cyclopropyl-6-fluoro-8-methoxy-4-oxo-1,4-dihydroquinoline-3-carboxylic acid. For some compounds, in vivo efficacy was determined by testing a group of eight mice at a single dose level only. In these cases, the data presented in Table 13, below are reported as percent survival at the designated dose.

Rat pharmacokinetics = format: in vivo, Sprague-Dawley rats; conditions: iv
Protocol: Male Sprague-Dawley rats (n=4) were fasted overnight, then dosed intravenously (IV) with a 1 mg/mL solution of a compound of the present invention (prodrug) or parent (compound of formula (M)) in 20% hydroxypropyl-β-cyclodextrin at 2 mg/kg. Blood samples were collected up to 24 hours post dose into tubes containing an anticoagulant. Blood samples were centrifuged for cell removal, and 100 μL plasma was transferred to a clean vial, placed on dry ice, and stored in a −70° C. freezer prior to analysis.
Plasma samples were prepared as follows. Two volumes of acetonitrile containing formic acid and internal standard were added to one volume of plasma to precipitate proteins. Samples were centrifuged (3000 g for 5 min) and supernatant removed for analysis by LC-MS-MS. Calibration standards were prepared by adding appropriate volumes of stock solution directly into plasma and treated identically to collected plasma samples. LC-MS-MS analysis was performed utilizing multiple reaction monitoring for detection of characteristic ions for the test compounds (pro-drugs), parent (compound of formula (M)) and internal standard.
Plasma concentrations were measured as described above to determine a concentration vs time profile. The area under the plasma concentration vs time curve (AUC) was calculated using the linear trapezoidal method. Fitting of the data to obtain pharmacokinetic parameters was carried out using non-compartmental analysis, with results as listed in Table 14, below. The term “NA” means the data was not available.

[5] = Solubility of parent compound in citrate buffer (HPLC); format: physicochemical; conditions: aqueous buffer, thermodynamic from solid, 50 mM citrate buffer
Protocol: The solubility of the parent compound (the compound of formula (M), also known as ((E)-7-(3-(2-amino-1-fluoroethylidene)piperidin-1-yl)-1-cyclopropyl-6-fluoro-8-methoxy-4-oxo-1,4-dihydroquinoline-3-carboxylic acid), was determined in a separate experiment, in which solutions containing 50 mM citrate buffer at various pH were added to the solid compound at various target concentrations. The samples were mixed overnight and the pH measured with a Beckman φ360 pH/Temp/mV Meter. The samples were then filtered using nylon centrifuge filters. The supernatant was diluted and the concentration was measured with HPLC.

[6] = pH 4, aqueous buffer, read-out: Aqueous Solubility pH~4
[7] = pH 7, aqueous buffer, read-out: Aqueous Solubility pH~7
[8] = fresh human blood (volunteers), 0 min
[9] = fresh human blood (volunteers), 5 min
[10] = fresh human blood (volunteers), 7.5 min
[11] = fresh human blood (volunteers), 10 min
[12] = fresh human blood (volunteers), 15 min
[13] = fresh human blood (volunteers), […]
[14] = fresh human plasma (volunteers), 0 min
[15] = fresh human plasma (volunteers), 5 min
[16] = fresh human plasma (volunteers), 7.5 min
[17] = fresh human plasma (volunteers), 10 min
[18] = fresh human plasma (volunteers), 15 min
[19] = fresh human plasma (volunteers), […]
[20] = Staphylococcus aureus, 72 h, Swiss Webster mice infected i.p. with MRSA, oral dose 1 h later, 3 day survival, normalized to parent content, read-out: ED50 p.o.
[21] = Staphylococcus aureus, iv, 72 h, Swiss Webster mice infected i.p. with MRSA, i.v. dose 1 h later, 3 day survival, normalized to parent content, read-out: ED50 i.v.
[22] = Sprague-Dawley, in vivo, male rats, 2 mg/kg i.v., analyte: the administered compound itself

## COc1c(N2CCC/C(=C(\F)CNC(=O)[C@@H]3CCCN3C(=O)[C@@H](N)CCCCN)C2)c(F)cc2c(=O)c(C(=O)O)cn(C3CC3)c12.Cl.Cl [Compound 15, 1-Cyclopropyl-7-[3-(2-{[(2S)-1-((2S)-2,6-diamino-hexanoyl)-pyrrolidine-2-carbonyl]-amino}-1-fluoro-ethylidene)-piperidin-1-yl]-6-fluoro-8-methoxy-4-oxo-1,4-dihydro-quinoline-3-carboxylic acid dihydrochloride]
[1]; [6]
  solubility at 18 h: > 4600 µg/mL
[1]; [7]
  solubility at 18 h: > 11100 µg/mL
[2]; fresh mouse blood, 0 min
  Peak Area of pro-drug: 265 mAU
[2]; fresh mouse blood, 5 min
  Peak Area of pro-drug: 75 mAU
[2]; fresh mouse blood, 7.5 min
  Peak Area of pro-drug: 36 mAU
[2]; fresh mouse blood, 10 min
  Peak Area of pro-drug: 29 mAU
[2]; fresh mouse blood, 15 min
  Peak Area of pro-drug: 17 mAU
[2]; fresh mouse blood, […]
  Peak Area of pro-drug: 123 mAU
[2]; fresh mouse plasma, 0 min
  Peak Area of pro-drug: 488 mAU
[2]; fresh mouse plasma, 5 min
  Peak Area of pro-drug: 106 mAU
[2]; fresh mouse plasma, 7.5 min
  Peak Area of pro-drug: 72 mAU
[2]; fresh mouse plasma, 10 min
  Peak Area of pro-drug: 62 mAU
[2]; fresh mouse plasma, 15 min
  Peak Area of pro-drug: 22 mAU
[2]; fresh mouse plasma, […]
  Peak Area of pro-drug: 182 mAU
[2]; mouse whole blood and plasma
  Conversion to the parent compound (summary in words): converted to the parent
[3]; [8]
  Peak Area of pro-drug: 242 mAU
[3]; [9]
  Peak Area of pro-drug: 23 mAU
[3]; [10]
  Peak Area of pro-drug: 10 mAU
[3]; [11]
  Peak Area of pro-drug: 8 mAU
[3]; [12]
  Peak Area of pro-drug: 6 mAU
[3]; [13]
  Peak Area of pro-drug: 59 mAU
[3]; [14]
  Peak Area of pro-drug: 330 mAU
[3]; [15]
  Peak Area of pro-drug: 26 mAU
[3]; [16]
  Peak Area of pro-drug: 14 mAU
[3]; [17]
  Peak Area of pro-drug: 10 mAU
[3]; [18]
  Peak Area of pro-drug: 11 mAU
[3]; [19]
  Peak Area of pro-drug: 75 mAU
[3]
  Conversion to the parent compound (summary in words): converted to the parent
[4]; [20]
  ED50: > 13 mg/kg
[4]; [21]
  ED50: 1.6 mg/kg
Rat pharmacokinetics; in vivo
  Conversion to the parent drug in vivo (in words): rapidly converted to the parent drug

## COc1c(N2CCC/C(=C(\F)CNC(=O)CNC(=O)[C@@H](N)CCC(=O)O)C2)c(F)cc2c(=O)c(C(=O)O)cn(C3CC3)c12.Cl [Compound 16, 7-(3-{2-[2-((2S)-2-Amino-4-carboxy-butyrylamino)-acetylamino]-1-fluoro-ethylidene}-piperidin-1-yl)-1-cyclopropyl-6-fluoro-8-methoxy-4-oxo-1,4-dihydro-quinoline-3-carboxylic acid hydrochloride]
[1]; [6]
  solubility at 18 h: > 3690 µg/mL
[1]; [7]
  solubility at 18 h: > 3360 µg/mL
[2]; fresh mouse blood, 0 min
  Peak Area of pro-drug: 332 mAU
[2]; fresh mouse blood, 5 min
  Peak Area of pro-drug: 131 mAU
[2]; fresh mouse blood, 7.5 min
  Peak Area of pro-drug: 99 mAU
[2]; fresh mouse blood, 10 min
  Peak Area of pro-drug: 71 mAU
[2]; fresh mouse blood, 15 min
  Peak Area of pro-drug: 34 mAU
[2]; fresh mouse blood, […]
  Peak Area of pro-drug: 174 mAU
[2]; fresh mouse plasma, 0 min
  Peak Area of pro-drug: 406 mAU
[2]; fresh mouse plasma, 5 min
  Peak Area of pro-drug: 220 mAU
[2]; fresh mouse plasma, 7.5 min
  Peak Area of pro-drug: 178 mAU
[2]; fresh mouse plasma, 10 min
  Peak Area of pro-drug: 149 mAU
[2]; fresh mouse plasma, 15 min
  Peak Area of pro-drug: 98 mAU
[2]; fresh mouse plasma, […]
  Peak Area of pro-drug: 285 mAU
[2]; mouse plasma
  Conversion to the parent compound (summary in words): converted to an unknown metabolite, but not substantially to the parent drug
[2]; mouse whole blood
  Conversion to the parent compound (summary in words): converted to the parent in mouse whole blood via the intermediacy of a metabolite of unknown identity
[3]; [8]
  Peak Area of pro-drug: 370 mAU
[3]; [9]
  Peak Area of pro-drug: 332 mAU
[3]; [10]
  Peak Area of pro-drug: 342 mAU
[3]; [11]
  Peak Area of pro-drug: 374 mAU
[3]; [12]
  Peak Area of pro-drug: 359 mAU
[3]; [13]
  Peak Area of pro-drug: 336 mAU
[3]; [14]
  Peak Area of pro-drug: 351 mAU
[3]; [15]
  Peak Area of pro-drug: 355 mAU
[3]; [16]
  Peak Area of pro-drug: 366 mAU
[3]; [17]
  Peak Area of pro-drug: 372 mAU
[3]; [18]
  Peak Area of pro-drug: 371 mAU
[3]; [19]
  Peak Area of pro-drug: 350 mAU
[3]
  Conversion to the parent compound (summary in words): not measured to convert to the parent drug
[4]; [20]
  ED50: > 13.9 mg/kg
[4]; [21]
  ED50: 1.6 mg/kg
Rat pharmacokinetics; in vivo
  Conversion to the parent drug in vivo (in words): rapidly converted to the parent drug

## COc1c(N2CCC/C(=C(\F)CN)C2)c(F)cc2c(=O)c(C(=O)O)cn(C3CC3)c12 [Compound (M), (E)-7-(3-(2-amino-1-fluoroethylidene)piperidin-1-yl)-1-cyclopropyl-6-fluoro-8-methoxy-4-oxo-1,4-dihydroquinoline-3-carboxylic acid]
[5]; pH 4.11, mixed overnight
  solubility: 140 µg/mL (≈ 334 µM)
[5]; pH 6.75, mixed overnight
  solubility: 40 µg/mL (≈ 95.4 µM)
[4]; administered i.v., mouse MRSA systemic infection
  ED50: 0.71 mg/kg/day
[4]; administered p.o., mouse MRSA systemic infection
  ED50: 10.6 mg/kg/day
Rat pharmacokinetics; [22]
  AUC: 718 ng·h/mL
  Cmax: 805 ng/mL
  clearance: 47.1 mL/min/kg
Rat pharmacokinetics; Sprague-Dawley, in vivo, male rats, 2 mg/kg i.v., analyte: the administered compound itself, read-out: Vss
  Vd: 6.08 L/kg
Rat pharmacokinetics; Sprague-Dawley, plasma, male rats, 2 mg/kg i.v., analyte: the administered compound itself
  half-life: 90 min
